SMILES strings stand for the structures. Where “and” joins values, the source holds several entries; their conditions need not be identical. Equal entries are not always repeated. Calls of active or inactive are those of the source.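 Rule for the calls: active = fitted half-maximal concentration for changing background-corrected GFP signal at or below a set limit; inactive = the rest.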

The nature of the test: modulators of MEP2-GFP levels in yeast, dose response, S. cerevisiae, flow cytometry GFP, MLPCN hits (AID 2742).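 Note: GFP tag reports level of MEP2 protein as a downstream target of TOR signalling.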 Particulars: S. cerevisiae MEP2-GFP strain, flow cytometry fluorescence, 3 h; at 33 µM (top of the series).

`O=C(OCC(=O)N1CCN(C(=O)c2ccco2)CC1)c1cc(-c2ccc(Cl)c(Cl)c2Cl)nc2ccccc12`: the GFP fluorescence (kMESF), higher = increase is 4.51 kMESF (inactive).
Consider `O=C1Oc2ccccc2C(=O)/C1=C/c1ccccc1O`, for which the GFP fluorescence (kMESF), higher = increase is 5.39 kMESF (inactive).
Consider `CSc1nnc2c3cc(F)ccc3n(C)c2n1`, for which the GFP fluorescence (kMESF), higher = increase was 2.36 kMESF (inactive).
Turning to `Clc1cnc(N/N=C/c2cccs2)c(Cl)c1`, the GFP fluorescence (kMESF), higher = increase was 2.89 kMESF (inactive).
As to `COc1ccc(N2CCN(C(=O)c3ccccc3)CC2)c([N+](=O)[O-])c1`, the GFP fluorescence (kMESF), higher = increase is 3.33 kMESF (inactive).
With `O=C(/C=C/c1ccnc2ccccc12)c1cccs1`, the GFP fluorescence (kMESF), higher = increase is 4.23 kMESF (inactive).
On to `O=C1C=C(Nc2ccc(Cl)cc2)C(=O)N1c1ccc(Cl)cc1`, for which the GFP fluorescence (kMESF), higher = increase was 1.97 kMESF (inactive).
With `COc1ccc(C2=CC3=C(Br)C(=O)C(C)(O)C(=O)C3=CO2)cc1` (stereo unspecified), the GFP fluorescence (kMESF), higher = increase was -0.97 kMESF (inactive).
For the molecule `CC(Oc1ccc2ccccc2c1)C(=O)NNC(=S)NC(=O)c1ccco1` (stereo unspecified), the GFP fluorescence (kMESF), higher = increase was 4.16 kMESF (inactive).
Then `CN(C)c1ccc(N=Cc2nc(-c3ccccc3)oc2OC(=O)c2cccc(Cl)c2)cc1`, with 3.27 kMESF (inactive).
For `COc1ccc(C(=O)/C=C2/C(=O)Nc3ccccc32)cc1OC`, the GFP fluorescence (kMESF), higher = increase is 2.25 kMESF (inactive).
For the molecule `Cc1ccc2c(c1)c(/C=C/c1cc[n+](C)cc1)c(C)n2C`, the GFP fluorescence (kMESF), higher = increase is 9.93 kMESF (inactive).
As for `O=C1NC(=O)N(c2ccccc2)C(=O)/C1=C/c1ccc(Sc2ccccc2)o1`, the GFP fluorescence (kMESF), higher = increase is 4.03 kMESF (inactive).
Then `Cc1ccc(/C=C2/SC(=S)N(C3CCCCC3)C2=O)o1`, with 4.94 kMESF (inactive); and `Cc1cccc(C(=O)NNC(=S)NC(=O)c2ccccc2)c1`, with 5.31 kMESF (inactive); and `CCN1C(=O)/C(=C\C(=O)c2cccs2)c2cc(Br)ccc21`, with 9.04 kMESF (inactive).
In the case of `Oc1ccc(CNc2ccccc2)c2cccnc12`, the GFP fluorescence (kMESF), higher = increase is 3.28 kMESF (inactive).
Regarding `Nc1ccc2ccc3cccc[n+]3c2c1`, the GFP fluorescence (kMESF), higher = increase is 5.03 kMESF (inactive).
With `O=C(/C=C/c1cccc(Cl)c1)c1nc2ccccc2[nH]1`, the GFP fluorescence (kMESF), higher = increase is 3.3 kMESF (inactive).
For `O=[N+]([O-])c1ccc(S(=O)(=O)c2cccc(C(F)(F)F)c2)nc1`, the GFP fluorescence (kMESF), higher = increase is 4.85 kMESF (inactive).
`O=c1cc(-c2ccccc2)cc(-c2ccccc2)n1O`: the GFP fluorescence (kMESF), higher = increase was 4.49 kMESF (inactive).
For `CCCc1cc(NCc2ccccn2)n2nc(C)c(-c3ccccc3)c2n1`, the GFP fluorescence (kMESF), higher = increase is 2.86 kMESF (inactive).
Regarding `Cc1ccccc1[C@]1(C)ON(c2ccccc2C(F)(F)F)C1=O`, the GFP fluorescence (kMESF), higher = increase is 2.17 kMESF (inactive).
Then `CC(C)(C)C1C/C(=C/c2ccccn2)C(=O)/C(=C/c2ccccn2)C1` (stereo unspecified), with 2.67 kMESF (inactive).
In the case of `O=C1C(Cl)=C(Nc2ccccc2O)C(=O)N1c1ccccc1` it was 4.11 kMESF (inactive).
Turning to `C=CCOc1ccccc1C(=O)/C=C1/C(=O)Nc2ccccc21`, the GFP fluorescence (kMESF), higher = increase is 3.91 kMESF (inactive).
As to `COc1cc(C=C2C(=O)c3ccccc3C2=O)cc(OC)c1`, the GFP fluorescence (kMESF), higher = increase was 2.05 kMESF (inactive).
Then `Cn1ncc2c(O/N=C(\N)c3ccc(C(C)(C)C)cc3)ncnc21`, with 3.78 kMESF (inactive); and `CC(C)Oc1ccc(C(=O)/C=C2/C(=O)Nc3ccccc32)cc1`, with 3.75 kMESF (inactive); and `Cc1ccc(C(CC(=O)O)NC(=O)c2ccc(S(=O)(=O)N3CC(C)OC(C)C3)cc2)cc1` (stereo unspecified), with 3.08 kMESF (inactive).
Take `O=C1C(=O)c2ccccc2-c2ccccc21`: the GFP fluorescence (kMESF), higher = increase was 2.76 kMESF (inactive).
Regarding `O=C1Nc2ccc(Br)cc2/C1=C/C(=O)c1ccc2c(c1)OCO2`, the GFP fluorescence (kMESF), higher = increase was 4.66 kMESF (inactive).
As for `N=C1S/C(=C\c2ccco2)C(=O)N1c1nccs1`, the GFP fluorescence (kMESF), higher = increase is 4.56 kMESF (inactive).
Regarding `Cc1ccc(S(=O)(=O)ON2C(=O)c3ccccc3C2=O)c(C)c1`, the GFP fluorescence (kMESF), higher = increase was 5.06 kMESF (inactive).
Take `On1ccccc1=S`: the GFP fluorescence (kMESF), higher = increase is 3.58 kMESF (inactive).
With `CC(=O)N(C(C)=O)c1ncnc2c1c(-c1ccc(Cl)cc1)nn2C(C)(C)C`, the GFP fluorescence (kMESF), higher = increase is 1.85 kMESF (inactive).
As for `O=C(O)c1ccn2c(C(=O)c3ccccc3)c(-c3ccccc3)cc2c1`, the GFP fluorescence (kMESF), higher = increase was 3.13 kMESF (inactive).
As for `CN1CCN(C(c2ccc(C(F)(F)F)cc2)c2ccc3cccnc3c2O)CC1` (stereo unspecified), the GFP fluorescence (kMESF), higher = increase was 4.86 kMESF (inactive).
Regarding `CCCCC(=O)NC(=S)NNC(=O)CCc1ccccc1`, the GFP fluorescence (kMESF), higher = increase is 3.11 kMESF (inactive).
As to `CC(=O)Oc1oc(-c2ccccc2)nc1C=Nc1ccccc1`, the GFP fluorescence (kMESF), higher = increase was 3.71 kMESF (inactive).
With `COc1ccc(-c2cc3cc(C(=O)O)ccn3c2C(=O)c2ccccc2)cc1`, the GFP fluorescence (kMESF), higher = increase is 3.23 kMESF (inactive).
In the case of `Cc1ccc(/C=C2/C(=O)ON=C2c2ccccc2)o1`, the GFP fluorescence (kMESF), higher = increase was 3.11 kMESF (inactive).
In the case of `O=C(CCS(=O)(=O)c1ccccc1)Nc1nc(-c2ccccn2)cs1` it was 1.34 kMESF (inactive).
Turning to `COc1ccc(N2C(=O)C(Cl)=C(Nc3c(C)n(C)n(-c4ccccc4)c3=O)C2=O)cc1`, the GFP fluorescence (kMESF), higher = increase is 2.4 kMESF (inactive).
`O=C1C=CC(=O)N1N(c1ccccc1)c1ccccc1`: the GFP fluorescence (kMESF), higher = increase was 4.7 kMESF (inactive).
For `CC1(C(=O)NC(=S)NNC(=O)c2ccncc2)CCCCC1`, the GFP fluorescence (kMESF), higher = increase was 3.51 kMESF (inactive).
With `CCCS(=O)(=O)c1nnnn1-c1cccc(OC)c1`, the GFP fluorescence (kMESF), higher = increase was 2.18 kMESF (inactive).
For `COc1cc(/C=C2\C(=O)ON=C2c2ccccc2)cc(OC)c1OC`, the GFP fluorescence (kMESF), higher = increase is 3.21 kMESF (inactive).
In the case of `CCOc1cc(C=C2C(=O)c3ccccc3C2=O)ccc1OCC(=O)Nc1ccc(C)cc1` it was 1.75 kMESF (inactive); in that of `O=C(c1ccc([N+](=O)[O-])o1)N1CCN(c2nc3c(F)cc(F)cc3s2)CC1`, -3.51 kMESF (inactive).
Regarding `O=C(NC(=S)Nc1ccc2oc(=O)ccc2c1)c1cccc(Cl)c1`, the GFP fluorescence (kMESF), higher = increase was 1.7 kMESF (inactive).
In the case of `COc1cc(SSc2cc(OC)cc([N+](=O)[O-])c2N)c(N)c([N+](=O)[O-])c1` it was 5.29 kMESF (inactive); in that of `CC(C)(C)n1nc(-c2ccc(Cl)cc2)c2c(N)ncnc21`, 6.05 kMESF (inactive).
In the case of `COC(=O)c1cc(N2C(=O)C3C(C2=O)C2(C)C=CC3(C)O2)ccc1Cl` (stereo unspecified) it was 4.8 kMESF (inactive); in that of `CC1=C(C)/C(=N\OS(=O)(=O)c2ccc(C)cc2)C=CC1=O`, 4.38 kMESF (inactive); in that of `Cc1ccc(C(=O)NNC(=S)NC(=O)c2ccco2)cc1`, 4.91 kMESF (inactive).
In the case of `CC(C)(C)c1nnc(N/N=C/c2cc(Br)ccc2O)n(N)c1=O` it was 2.57 kMESF (inactive); in that of `CCN(CC)c1ccc(/C=C2\C(=O)c3ccc(C(=O)O)cc3C2=O)cc1`, 47.5 kMESF (inactive); in that of `COC(=O)CCCC1=CC2=CC(=O)C(C)(OC(=O)CCc3ccccc3)C(=O)C2=CO1` (stereo unspecified), 1.97 kMESF (inactive).
On to `Cc1cc(O)c(C(=O)/C=C/c2c(F)c(F)c(F)c(F)c2F)c(=O)o1`, for which the GFP fluorescence (kMESF), higher = increase was 0.99 kMESF (inactive).
As to `O=C(OCC(=O)N1CCN(C(=O)c2ccco2)CC1)c1cc(-c2cccc(Br)c2)nc2ccccc12`, the GFP fluorescence (kMESF), higher = increase was 4.47 kMESF (inactive).
For the molecule `N#Cc1cc([N+](=O)[O-])c(-n2nnc3ccccc32)c([N+](=O)[O-])c1`, the GFP fluorescence (kMESF), higher = increase is 3.54 kMESF (inactive).
Take `C=CCn1c(C)c(/C=C/c2cc[n+](C)cc2)c2ccccc21`: the GFP fluorescence (kMESF), higher = increase is 5.92 kMESF (inactive).
In the case of `CC(=O)Oc1ccc(N2C(=O)C3C4C=CC(O4)C3C2=O)cc1` (stereo unspecified) it was 3.13 kMESF (inactive); in that of `CC(C)(C)C(=O)NC(=S)NNC(=O)c1ccc(-c2ccccc2)cc1`, 3.92 kMESF (inactive); in that of `O=C(O)c1ccccc1SC1CC(=O)N(c2ccc3c(c2)OCO3)C1=O` (stereo unspecified), 3.4 kMESF (inactive).
For `CC(=O)Oc1ccc(N2C(=O)C3C4C=CC(CO)(O4)C3C2=O)cc1` (stereo unspecified), the GFP fluorescence (kMESF), higher = increase was 3.1 kMESF (inactive).
Then `O=C(NNC(=S)NC(=O)c1ccco1)c1ccc(F)cc1`, with 4.11 kMESF (inactive); and `O=C1c2ccccc2C(=O)N1OS(=O)(=O)c1ccc(F)cc1`, with 3.26 kMESF (inactive); and `O=C1NC(=O)N(Cc2ccco2)C(=O)/C1=C/c1ccc(-c2cccc([N+](=O)[O-])c2)o1`, with 4.33 kMESF (inactive).
`Cc1ccc(C(=O)Sc2cccccc2=O)cc1`: the GFP fluorescence (kMESF), higher = increase was 3.82 kMESF (inactive).
In the case of `Cc1ccc(S(=O)(=O)c2ncccc2[N+](=O)[O-])cc1` it was 3.64 kMESF (inactive).
As for `Cc1ccc(N/N=C(\C#N)C(N)=S)c(C)c1`, the GFP fluorescence (kMESF), higher = increase was 4.52 kMESF (inactive).
`CN(Cc1cnc2nc(N)nc(N)c2n1)c1ccc(C(=O)N[C@@H](CCC(=O)O)C(=O)O)cc1`: the GFP fluorescence (kMESF), higher = increase was 2.67 kMESF (inactive) and 1.92 kMESF (inactive).
`Cc1nn(C)c(C)c1N1C(=O)c2cccc3c(Br)ccc(c23)C1=O`: the GFP fluorescence (kMESF), higher = increase is 3.61 kMESF (inactive).
Then `Cc1cc(C(=O)Nc2nc(-c3ccccn3)cs2)ccc1[N+](=O)[O-]`, with 4.48 kMESF (inactive).

These data come from PubChem BioAssay AID2742 (NMMLSC, 2010).
